The source made the active and inactive calls. The rule behind the calls is not given here.
Assays:
HepG2 [1] = test: Induction of autophagy in human HepG2 cells assessed as ratio of LC3-2 level to total ERK level at 0.5 uM after 2 hrs in presence of CQ by Western blot analysis (reference value: 1); type: functional
HepG2 [2] = test: Activation of AMPKalpha in human HepG2 cells assessed as ratio of phosphorylated AMPKalpha at T172 residue to total ERK level at 0.5 uM incubated for 4 hrs in presence of CC by Western blot analysis relative to CC; type: cell-based
HepG2 [3] = test: Induction of autophagy in human HepG2 cells assessed as ratio of LC3-2 level to total ERK level at 0.5 uM after 2 hrs in presence of PFKFB3 siRNA by Western blot analysis (reference value: 0.8); type: functional
[4] = biological target: Serine/threonine-protein kinase mTOR (Homo sapiens) (UniProt P42345); test: Inhibition of mTOR phosphorylation at S2448 residue in human HepG2 cells assessed as ratio of phosphorylated mTOR to total ERK level at 0.5 uM after 4 hrs by Western blot analysis (reference value: 1); type: cell-based
HepG2 [5] = test: Induction of autophagy in human HepG2 cells ratio of LC3-2 level to total ERK level at 0.5 uM after 2 hrs in presence of CQ by Western blot analysis relative to CQ; type: functional
[6] = biological target: Serine/threonine-protein kinase mTOR (Homo sapiens) (UniProt P42345); test: Inhibition of mTOR phosphorylation at S2448 residue in human HepG2 cells assessed as ratio of phosphorylated mTOR to total ERK level at 0.25 uM after 4 hrs by Western blot analysis (reference value: 1); type: cell-based
HepG2 [7] = test: Induction of autophagy in human HepG2 cells assessed as accumulation of LC3-2 protein level at 0.5 uM after 4 hrs in presence of CQ by Western blot analysis analysis relative to CQ; type: functional
HepG2 [8] = test: Induction of autophagy in human HepG2 cells assessed as ratio of LC3-2 level to total ERK level at 0.5 uM after 2 hrs in presence of 2-DG and CQ by Western blot analysis (reference value: 3.9); type: functional
HepG2 [9] = test: Induction of autophagy in human HepG2 cells assessed as ratio of LC3-2 level to total ERK level at 0.5 uM after 2 hrs in presence of PFK15 and CQ by Western blot analysis (reference value: 1.1); type: functional
HepG2 [10] = test: Induction of autophagy in human HepG2 cells assessed as ratio of PFKFB3 expression to total ERK level after 2 hrs by Western blot analysis (reference value: 1); type: functional
HepG2 [11] = test: Induction of autophagy in human HepG2 cells assessed as ratio of LC3-2 to total Erk1/2 protein level at 0.5 uM after 12 hrs in presence of CQ by Western blot analysis (reference value: 3.9); type: functional
HepG2 [12] = test: Induction of autophagy in human HepG2 cells assessed as ratio of LC3-2 level to total ERK level at 0.5 uM after 2 hrs in presence of HK2 siRNA and CQ by Western blot analysis (reference value: 3.1); type: functional
HepG2 [13] = test: Induction of autophagy in human HepG2 cells assessed as ratio of LC3-2 to total Erk1/2 protein level at 0.5 uM after 12 hrs by Western blot analysis (reference value: 1); type: functional
[14] = biological target: RAC-alpha serine/threonine-protein kinase (Homo sapiens) (UniProt P31749); test: Inhibition of AKT phosphorylation at S473 residue in human HepG2 cells assessed as ratio of phosphorylated Akt to total Akt level at 0.5 uM after 4 hrs by Western blot analysis (reference value: 1); type: cell-based
[15] = biological target: Serine/threonine-protein kinase mTOR (Homo sapiens) (UniProt P42345); test: Inhibition of mTOR phosphorylation at S2448 residue in human HepG2 cells assessed as ratio of phosphorylated mTOR to total mTOR level at 0.25 uM after 4 hrs by Western blot analysis (reference value: 1); type: cell-based
HepG2 [16] = test: Activation of AMPKalpha in human HepG2 cells assessed as ratio of phosphorylated AMPKalpha at T172 residue to total ERK level at 0.5 uM incubated for 4 hrs by Western blot analysis (reference value: 1); type: cell-based
HepG2 [17] = test: Induction of autophagy in human HepG2 cells ratio of LC3-2 level to total ERK level at 0.5 uM after 2 hrs in presence of 2-DG and CQ by Western blot analysis relative to 2-DG; type: functional
[18] = biological target: Serine/threonine-protein kinase mTOR (Homo sapiens) (UniProt P42345); test: Inhibition of mTOR phosphorylation at S2448 residue in human HepG2 cells assessed as ratio of phosphorylated mTOR to total ERK level at 0.1 uM after 4 hrs by Western blot analysis (reference value: 1); type: cell-based
HepG2 [19] = test: Induction of autophagy in human HepG2 cells assessed as ratio of LC3-2 level to total ERK level at 0.5 uM after 2 hrs by Western blot analysis (reference value: 1); type: functional
[20] = biological target: Serine/threonine-protein kinase mTOR (Homo sapiens) (UniProt P42345); test: Inhibition of mTOR phosphorylation at S2448 residue in human HepG2 cells assessed as ratio of phosphorylated mTOR to total mTOR level at 0.5 uM after 4 hrs by Western blot analysis (reference value: 1); type: cell-based
HepG2 [21] = test: Induction of autophagy in human HepG2 cells assessed as accumulation of LC3-2 protein level at 0.5 uM after 12 hrs in presence of CQ by Western blot analysis relative to CQ; type: functional
HepG2 [22] = test: Induction of autophagy in human HepG2 cells assessed as ratio of LC3-2 level to total ERK level at 0.5 uM after 2 hrs in presence of PFK15 by Western blot analysis (reference value: 1.1); type: functional
[23] = biological target: Serine/threonine-protein kinase mTOR (Homo sapiens) (UniProt P42345); test: Inhibition of mTOR phosphorylation at S2448 residue in human HepG2 cells assessed as ratio of phosphorylated mTOR to total ERK level at 1 uM after 4 hrs by Western blot analysis (reference value: 1); type: cell-based
MCF7 = test: Antiproliferative activity against human MCF7 cells assessed as reduction in cell viability by MTS assay; type: functional, cell-based
HepG2 [24] = test: Induction of autophagy in human HepG2 cells assessed as ratio of LC3-2 level to total ERK level at 0.5 uM after 2 hrs in presence of HK2 siRNA and CQ by Western blot analysis relative to HK2 siRNA; type: functional
HepG2 [25] = test: Induction of autophagy in human HepG2 cells assessed as ratio of HK2 expression to total ERK level after 2 hrs by Western blot analysis (reference value: 1); type: functional
HepG2 [26] = test: Activation of AMPKalpha in human HepG2 cells assessed as ratio of phosphorylated ACCalpha at S79 residue to total ERK level at 0.5 uM incubated for 4 hrs in presence of CC by Western blot analysis (reference value: 1.1); type: cell-based
HepG2 [27] = test: Activation of AMPKalpha in human HepG2 cells assessed as ratio of phosphorylated ACCalpha at S79 residue to total ERK level at 0.5 uM incubated for 4 hrs in presence of CC by Western blot analysis relative to CC; type: cell-based
[28] = biological target: Serine/threonine-protein kinase mTOR (Homo sapiens) (UniProt P42345); test: Inhibition of mTOR phosphorylation at S2448 residue in human HepG2 cells assessed as ratio of phosphorylated mTOR to total ERK level at 0.05 uM after 4 hrs by Western blot analysis (reference value: 1); type: cell-based
HepG2 [29] = test: Induction of endoplasmic reticulum stress in human HepG2 cells assessed as increase in […] expression at 0.5 uM after 4 hrs by anti-ATF6 antibody staining based fluorescence microscopic method; type: functional, cell-based

Chain of RAC-alpha serine/threonine-protein kinase (Homo sapiens) (P31749 whole entry): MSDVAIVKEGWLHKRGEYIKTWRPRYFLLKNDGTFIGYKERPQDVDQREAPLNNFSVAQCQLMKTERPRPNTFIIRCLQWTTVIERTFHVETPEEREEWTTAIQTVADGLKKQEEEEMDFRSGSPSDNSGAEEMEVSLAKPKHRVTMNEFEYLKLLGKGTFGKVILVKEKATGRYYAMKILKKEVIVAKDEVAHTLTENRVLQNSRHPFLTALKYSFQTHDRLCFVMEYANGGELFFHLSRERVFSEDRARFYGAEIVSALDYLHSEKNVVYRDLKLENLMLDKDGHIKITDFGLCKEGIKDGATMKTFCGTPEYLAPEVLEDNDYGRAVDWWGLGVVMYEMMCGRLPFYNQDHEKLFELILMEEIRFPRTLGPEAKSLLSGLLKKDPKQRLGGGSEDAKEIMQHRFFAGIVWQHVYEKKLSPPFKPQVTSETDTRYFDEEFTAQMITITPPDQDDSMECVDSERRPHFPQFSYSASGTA

CC[C@@]12SS[C@]3(C(=O)N1C)[C@@H](O)C1(C45c6ccccc6N[C@@H]4N4C(=O)[C@]6([C@@H](C)O)SS[C@]4(C(=O)N6C)[C@H]5O)c4ccccc4N[C@@H]1N3C2=O (stereo not given in full)
Ratio (HepG2 [1]): 3.1 | fold change (FC) (HepG2 [2]): 0.8 | Ratio (HepG2 [3]): 0.9 | Ratio [4]: 1 | fold change (FC) (HepG2 [5]): 2.1 | Ratio [6]: 1 | fold change (FC) (HepG2 [7]): 2.3 | Ratio (HepG2 [8]): 3.7 | Ratio (HepG2 [9]): 4.4 | Ratio (HepG2 [10]): 0.7 | Ratio (HepG2 [11]): 4.2 | Ratio (HepG2 [12]): 4.7 | Ratio (HepG2 [13]): 1.3 | Ratio [14]: 1.4 | Ratio [15]: 1.4 | Ratio (HepG2 [16]): 1.2 | fold change (FC) (HepG2 [17]): 3.7 | Ratio [18]: 0.9 | Ratio (HepG2 [19]): 1.5 | Ratio [20]: 1.8 | fold change (FC) (HepG2 [21]): 3.2 | Ratio (HepG2 [22]): 1.3 | Ratio [23]: 1 | Activity (MCF7): Active | fold change (FC) (HepG2 [24]): 2.8 | Ratio (HepG2 [25]): 0.8 | Ratio (HepG2 [26]): 1 | fold change (FC) (HepG2 [27]): 0.7 | Ratio [28]: 1 | Activity (HepG2 [29]): inactive

CCC1(SC)C(=O)N2[C@H]3N(C)c4ccccc4C3(C34c5ccccc5N(C)[C@@H]3N3C(=O)C(SC)([C@@H](C)O)N(C)C(=O)C3(SC)[C@H]4O)[C@H](O)C2(SC)C(=O)N1C (stereo not given in full)
Ratio (HepG2 [1]): 3.2 | fold change (FC) (HepG2 [2]): 0.6 | Ratio (HepG2 [3]): 1 | Ratio [4]: 1 | fold change (FC) (HepG2 [5]): 2.2 | Ratio [6]: 1 | fold change (FC) (HepG2 [7]): 2.8 | Ratio (HepG2 [8]): 3.7 | Ratio (HepG2 [9]): 3.9 | Ratio (HepG2 [10]): 0.6 | Ratio (HepG2 [11]): 4.4 | Ratio (HepG2 [12]): 7.2 | Ratio (HepG2 [13]): 1.2 | Ratio [14]: 1.4 | Ratio [15]: 2.2 | Ratio (HepG2 [16]): 1.4 | fold change (FC) (HepG2 [17]): 3.7 | Ratio [18]: 1 | Ratio (HepG2 [19]): 1.6 | Ratio [20]: 2.2 | fold change (FC) (HepG2 [21]): 3.6 | Ratio (HepG2 [22]): 1.6 | Ratio [23]: 0.9 | Activity (MCF7): Active | fold change (FC) (HepG2 [24]): 6.6 | Ratio (HepG2 [25]): 0.6 | Ratio (HepG2 [26]): 1.1 | fold change (FC) (HepG2 [27]): 0.7 | Ratio [28]: 1 | Activity (HepG2 [29]): inactive

Source: ChEMBL document CHEMBL4613241, “Disulfide Cleavage in a Dimeric Epipolythiodioxopiperazine Natural Product Diminishes Its Apoptosis-Inducing Effect but Enhances Autophagy in Tumor Cells” (2020)
